Legend:
[1] = biological target: T1, E. coli-expressed His-α2β1γ1 AMPK (Homo sapiens, UniProt P54646+Q9Y478); assay: In solution SAMS kinase assay, E. coli-expressed myristoylated His-α2β1γ1, CaMKK2-treated; assay type: biochemical; settings: for EC50 / Max. fold activation: E. coli-expressed α2β1γ1, CaMKK2-treated; for sensitivity to activation relative to immobilised GST-α2β1γ1 from HEK293T/17 cells: His-tagged myristoylated α2β1γ1, E. coli, CaMKK2-treated
T1 construct: Recombinant full-length AMPK 6xHisα2β1γ1 was expressed in E. coli Rosetta 2 (DE3); made in house; host or cells: E. coli Rosetta 2 (DE3)
T1 sequence (P54646 whole entry): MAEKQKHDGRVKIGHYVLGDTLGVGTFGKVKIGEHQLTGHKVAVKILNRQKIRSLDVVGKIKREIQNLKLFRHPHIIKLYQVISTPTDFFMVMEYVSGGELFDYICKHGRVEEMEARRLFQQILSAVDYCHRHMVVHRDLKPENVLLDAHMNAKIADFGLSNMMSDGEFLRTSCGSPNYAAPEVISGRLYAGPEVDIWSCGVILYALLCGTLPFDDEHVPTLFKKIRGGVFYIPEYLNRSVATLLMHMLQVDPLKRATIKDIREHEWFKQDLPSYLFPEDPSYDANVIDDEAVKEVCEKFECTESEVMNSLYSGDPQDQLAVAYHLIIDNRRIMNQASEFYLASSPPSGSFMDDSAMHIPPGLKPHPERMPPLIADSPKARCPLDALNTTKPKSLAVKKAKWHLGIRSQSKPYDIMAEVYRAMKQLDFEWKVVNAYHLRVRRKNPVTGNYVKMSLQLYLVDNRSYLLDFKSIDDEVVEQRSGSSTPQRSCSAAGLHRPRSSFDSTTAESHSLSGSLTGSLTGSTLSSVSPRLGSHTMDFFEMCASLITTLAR
T1 sequence (Q9Y478 whole entry): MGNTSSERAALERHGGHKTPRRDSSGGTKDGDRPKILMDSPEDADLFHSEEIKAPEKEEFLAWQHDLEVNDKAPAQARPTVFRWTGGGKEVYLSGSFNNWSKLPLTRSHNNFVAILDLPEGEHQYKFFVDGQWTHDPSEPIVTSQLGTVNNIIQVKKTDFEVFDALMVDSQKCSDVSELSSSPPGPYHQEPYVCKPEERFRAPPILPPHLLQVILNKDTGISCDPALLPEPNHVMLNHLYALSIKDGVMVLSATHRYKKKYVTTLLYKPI
T1 sequence (P54619 whole entry partner): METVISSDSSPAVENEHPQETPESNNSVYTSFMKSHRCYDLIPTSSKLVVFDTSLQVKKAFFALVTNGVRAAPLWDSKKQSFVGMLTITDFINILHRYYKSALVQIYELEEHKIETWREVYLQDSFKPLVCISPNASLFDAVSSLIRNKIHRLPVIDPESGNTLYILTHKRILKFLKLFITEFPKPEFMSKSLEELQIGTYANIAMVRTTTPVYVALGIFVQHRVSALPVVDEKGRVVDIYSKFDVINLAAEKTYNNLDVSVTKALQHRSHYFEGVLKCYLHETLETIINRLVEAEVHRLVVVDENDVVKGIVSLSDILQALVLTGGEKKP
Text: We directly compared in vitro potencies of pan activators by performing radiolabel kinase assays with γ1AMPK complexes. Initially, we used GST-tagged γ1AMPK expressed in HEK293T/17 cells and immobilised on glutathione-Sepharose (Figure 2 and Table 2). […] These assays used AMPK purified from Sf9 insect cells or E. coli that was pre-treated with CaMKK2. […] However, relative to immobilised GST-α2β1γ1 from HEK293T/17 cells, His-tagged and myristoylated α2β1γ1 AMPK (expressed in E. coli, CaMKK2-treated and assayed in solution) was at least 10-fold more sensitive to activation by both MK-8722 and MSG011 (Supplementary Figure S3B), indicating the GST-affinity tag or CaMKK2 treatment may exert some influence on sensitivity to these activators.
Recombinant full-length AMPK 6xHisα2β1γ1 was expressed in E. coli Rosetta 2 (DE3) (Merck Millipore) after double-transformation of pET-Duet-1 (α and γ subunits) and pCOLA (β subunit) vectors. Expression cultures were grown at 37°C in Luria-Bertani broth supplemented with 100 µg ml^−1 ampicillin and 50 µg ml^−1 kanamycin. Cultures shaking at 120 rpm in PYREX 2800 ml Fernbach-style culture flasks with baffles (Corning) were grown to an optical density (OD600) of 3.0 before induction with 500 µM isopropyl-β-D-1-thiogalactopyranoside (IPTG; Gold Biotechnology) and incubation overnight at 16°C. Cell pellets were resuspended in lysis buffer (50 mM TRIS pH 7.6, 500 mM NaCl, 5% (v/v) glycerol, 50 mM imidazole, 2 mM β-mercaptoethanol, 0.01 mM leupeptin, 0.1 mM AEBSF, 0.5 mM benzamidine hydrochloride), lysed using a precooled EmulsiFlex-C5 homogeniser (Avestin) and clarified via centrifugation (16 000g, 30 min, 4°C). Supernatant was passed through a HisTrap HP 5 ml Ni^2+ column (GE Healthcare) at 1 ml min^−1. The column was washed with 10 column volumes of chilled Ni^2+ column buffer (50 mM TRIS pH 7.6, 500 mM NaCl, 10% (v/v) glycerol, 50 mM imidazole, 2 mM β-mercaptoethanol) before elution with Ni^2+ column buffer supplemented with 400 mM imidazole. Proteinaceous fractions were then separated on a HiLoad 16/600 Superdex 200 gel filtration column (GE Healthcare) pre-equilibrated with size exclusion column buffer (SEC buffer; 50 mM TRIS pH 8.0, 150 mM NaCl, 2 mM tris(2-carboxyethyl) phosphine (TCEP)). AMPK containing fractions were pooled and concentrated to ∼2 mg ml^−1 using Amicon centrifugal filter units (Merck Millipore) prior to CaMKK2 treatment.
To phosphorylate AMPK, purified protein was incubated in the presence of 0.5 mM ATP, 0.5 mM AMP, 2.5 mM MgCl2 (Merck Millipore), SEC buffer and purified CaMKK2 (1 : 2500 mass ratio of CaMKK2:AMPK; for 1 h at 22°C with gentle rolling. The phosphorylation reaction was terminated by directly loading onto a HiLoad 16/600 Superdex 200 gel filtration column pre-equilibrated with SEC buffer. Protein was either assayed or concentrated to ∼10 mg ml^−1 using Amicon centrifugal filter units and flash frozen in L-N2 and stored at −80°C. The purified AMPK was analysed by ToF-MS and sample purity confirmed by SDS–PAGE.
AMPK activity was determined by phosphorylation of the SAMS peptide (Purar Chemicals, sequence: NH2-HMRSAMSGLHLVKRR-COOH) in a 25 µl reaction volume containing 100 µM SAMS peptide, 5 mM MgCl2, 200 µM ATP, [γ-^32P]-ATP (PerkinElmer) and assay buffer (50 mM HEPES pH 7.4, 1 mM DTT and 0.02% (v/v) Tween-20) and purified AMPK. Phosphotransferase activity was conducted at 30°C for 10 min and reactions were quenched by spotting 15 µl onto phosphocellulose ion-exchange chromatography paper (made in-house), followed by repeated washes in 1% H3PO4 (Merck Millipore). Ultima Gold liquid scintillation fluid (5 ml; PerkinElmer) was added to vials containing dried phosphocellulose papers, and the level of ^32P-transfer to the SAMS peptide was determined using a Tri-Carb 2900TR liquid scintillation counter (PerkinElmer).
⍺1β1γ1 – in solution E. coli-expressed ⍺2β1γ1
log [compound] (M) log [compound] (M)
Compound EC (nM) Max. fold Compound EC50 (nM) Max. fold […]

COS7 cells = assay: Immunoblot of AMPK signalling in COS7 cells; assay type: cell-based; settings: COS7, 2.5 µM, 1 h
Protocol: To evaluate the efficacy of MSG011 in cellulo, we incubated mouse primary hepatocytes with 2.5 µM MSG011 for 60 min and tracked changes in phosphorylation of AMPK α-Thr172 (marker of activation) and the AMPK substrate acetyl-CoA carboxylase (ACC) Ser79 (AMPK signalling marker).
HEK293T/17, HEK293T, COS7, HeLa and PC3 cells (ATCC) were maintained in Dulbecco's Modified Eagle's medium (DMEM; Sigma–Aldrich) supplemented with 10% fetal bovine serum (FBS; Assay Matrix) at 37°C and 5% CO2. Primary hepatocytes from wild type mice were prepared using the collagenase perfusion method and cultured as described previously. Cultures were incubated with fresh DMEM (no FBS) for 2 h prior to 1 h treatment with MSG011 (dissolved in DMSO) or phenformin (dissolved in H2O). Adherent HEK293T/17 cells at ∼50% confluency were triply transfected with AMPK α1 (pcDNA3.1 vector), β1 (COOH-terminal MYC fusion, pcDNA3.1 vector) and WT γ1 or γ1-R299G mutant (NH2-terminal HA fusion, pMT2 vector) in the presence of FuGENE HD transfection reagent (Promega) as per the manufacturers protocol. […]
All samples were separated on 12% SDS–PAGE gels and transferred to an Immobilon-FL PVDF membrane (Merck Millipore). […] Immunoblots were visualised on the Odyssey Infrared Imaging System (LI-COR Biosciences) and immunoreactive bands analysed and quantified using Image Studio Software (LI-COR Biosciences).

SMILES	EC50 [1] [nM]	Max. fold activation [1] [fold]	sensitivity to activation relative to immobilised GST-α2β1γ1 from HEK293T/17 cells [1]	AMPK signalling (phosphorylation of ACC-Ser79 and raptor-Ser792) (COS7 cells)
O[C@@H]1CO[C@H]2[C@@H]1OC[C@H]2Oc1nc2nc(-c3ccc(-c4ccccc4)cc3)c(Cl)cc2[nH]1 [MK-8722, reference compound]	334	3.6	at least 10 fold	–
CC(=O)NC1CC=C(c2ccc(-c3nc4nc(Oc5ccc(C)c(C(=O)O)c5)[nH]c4cc3Cl)cc2)CC1 (stereo not shown) [MSG011, 5-((5-(4′-Acetamido-2′,3′,4′,5′-tetrahydro-[1,1′-biphenyl]-4-yl)-6-chloro-1H-imidazo[4,5-b]pyridin-2-yl)oxy)-2-methylbenzoic acid]	32.6	5.5	at least 10 fold	at levels comparable to extreme energy stress

Reference: publication PMC9317966, “Structure-function analysis of the AMPK activator SC4 and identification of a potent pan AMPK activator” (Biochemical Journal, 2022)
